Reference: patent US5716627A, “Skin care compositions containing fatty acid amides, azoles, and retinol or retinyl ester” (Elizabeth Arden Co., Division of Conopco, Inc., priority 1996, dated 1998)

How the values were obtained:
[1] = tested on: Human keratinocytes; test: 3H-thymidine incorporation by cultured keratinocytes (keratinocyte proliferation); type: cell-based
Protocol: Human keratinocytes, isolated from neonatal foreskin by trypsin treatment were grown in Dulbecco Modification Eagle (DME) Hams F12 (1:1) medium/10% fetal calf serum in the presence of irradiated 3T3 mouse fibroblasts for establishing dividing keratinocyte colonies. Cells were grown under the above condition until their second passage and kept frozen for future use. […] On day 7, when the cells were 80-90% confluent, they were trypsinized and plated in the serum-free medium for the various experiments.
The incorporation of ^3 H-thymidine by cultured keratinocytes was used as an assay of keratinocyte proliferation. Thymidine is one of four deoxynucleosides which are the monomeric units of DNA, the universal library of genetic information in the animal kingdom. Prior to cell division of a somatic cell such as a keratinocyte, the complete genome of the cell undergoing cell division is replicated. This involves large scale DNA synthesis by the cell and enables both daughter cells to receive identical copies of the genetic material. When ^3 H-thymidine is included in the culture media of keratinocytes which are synthesizing DNA in preparation for cell division then the labelled nucleoside is incorporated into the newly synthesized DNA. The extent of incorporation of ^3 H-thymidine into a population of cells is proportional to the rate of DNA synthesis by this population of cells and therefore an indication of their cellular proliferation.
Keratinocytes (that were cultured as described above) were plated in 24 well plates at a density of 40,000 cells per well in 1 ml media. After incubation for four days or until the cells were 60-70% confluent, the media was changed. Test compounds were added (in triplicate) to the wells 24 hours after the media change, and four hours later 1 μCi ^3 H-Thymidine in 50 μl media was added per well. Cells were incubated for a further 24 hours. Media was removed from the cells, 10% ice cold trichloroacetic acid (TCA) added and plates were incubated on ice for 30 minutes. Cells were washed five times with 5% TCA and allowed to dissolve in 500 μl 0.1M NaOH for at least one hour (usually overnight). The preparations were neutralized with 0.1M HCl; 50 μl of the cell preparation was used to determine total protein content. Disintegrations per minute (DPM) from ^3 H labelling of DNA was determined by liquid scintillation counting of 900 μl of the cell preparation. Thymidine incorporation results were expressed as DPM/μg protein.

[2] = tested on: TGase I; test: Transglutaminase (TGase I) ELISA in cultured keratinocytes, normalized to DNA content (keratinocyte differentiation); type: cell-based, human; details: for Mean TGase/DNA X 10^-4 ± S.D.: n = 3
Protocol: Human keratinocytes, isolated from neonatal foreskin by trypsin treatment were grown in Dulbecco Modification Eagle (DME) Hams F12 (1:1) medium/10% fetal calf serum in the presence of irradiated 3T3 mouse fibroblasts for establishing dividing keratinocyte colonies. Cells were grown under the above condition until their second passage and kept frozen for future use. Frozen second passage keratinocytes were thawed and plated into the above medium and grown for five days before they were switched to a serum-free MCDB 153-based medium keratinocyte growth medium (KGM) from Clonetics Corporation, San Diego, Calif., containing 0.15 mM Ca, or keratinocyte serum-free media (KSFM) from GIBCO containing 0.09 mM Ca). On day 7, when the cells were 80-90% confluent, they were trypsinized and plated in the serum-free medium for the various experiments.
During the process of terminal differentiation in the epidermis, a 15 nm thick layer of protein, known as the cornified envelope (CE) is formed on the inner surface of the cell periphery. The CE is composed of numerous distinct proteins which have been cross-linked together by the formation of N^ε -(γ-glutamyl) lysine isodipeptide bonds catalyzed by the action of at least two different transglutaminases (TGases) expressed in the epidermis. TGase I is expressed in abundance in the differentiated layers of the epidermis, especially the granular layer, but is absent in the undifferentiated basal epidermis. Thus TGase I is a useful marker of epidermal keratinocyte differentiation with high TGase I levels indicating a more differentiated state. An ELISA based TGase I assay, using a TGase I antibody, was used to assess the state of differentiation of the cultured keratinocytes in the examples that follow.
Keratinocytes (cultured as described above) were plated in 96 well plates at a density of 3,000 cells per well in 200 μl media. After incubation for four days the media was changed to media containing test compounds (six replicates per test). The cells were cultured for a further 72 hours after which time the media was aspirated and the plates stored at -70° C. Plates were removed from the freezer, and the cells washed with PBS. 100 μl sterile water was added and the cells were freeze fractured by freezing at -70° C. then thawing. The cells were incubated for one hour at room temperature (R/T) with PBS/3% BSA (wash buffer, bovine serum albumin), then rinsed with a fresh aliquot of wash buffer. Cells were incubated with 50 μl of primary antibodies monoclonal anti-human transglutaminase (IgG) obtained from Amersham (mouse) diluted 1:300 in wash buffer for one hour, 37° C. then rinsed two times with wash buffer. Cells were then incubated with 50 μl of secondary antibody (Feb fragment, peroxidase conjugated anti-mouse IgG obtained from Amersham) diluted 1:200 in wash buffer for one hour at 37° C., then rinsed two times with wash buffer. Cells were incubated with substrate solution (4 mg o-phenylene diamine and 3.3 μl 30% H2 O2 in 10 ml 0.1M citrate buffer pH 5.0) for five minutes, R/T, in darkness (under aluminum foil). The reaction was stopped by the addition of 50 μl 4N H2 SO4. The absorbance of samples was read at 492 nm in the plate reader. Out of the six replicates, four were treated with both antibodies, two were treated only with the secondary antibody (i.e., to determine background binding of enzyme conjugated Ab). TGase levels were determined by subtracting background from the readings from each treatment and determining mean ±s.d. for the replicates exposed to both Ab.
The level of TGase-1 detected after treatment of the cells could be influenced by cell number, i.e., the greater the number of cells the greater the level of TGase-1 detected. The level of TGase-1 was normalized to DNA content of the cells in the same well thus eliminating variation due to differences in cell number. […]

[3] = Examples 1-4, overall conclusion

CC1=C(/C=C/C(C)=C/C=C/C(C)=C/CO)C(C)(C)CCC1 [ROH, retinol]
effect on keratinocyte proliferation (in words) [1, 3]: completely ineffective at increasing keratinocyte proliferation | Thymidine incorporation (% control) ([1]; Table 1A, 2.5 × 10^-7 M, 24 hours, 0.25 µM): 106% | mean Thymidine incorp./μg protein ± s.d ([1]; Table 1A, 2.5 × 10^-7 M, 24 hours, n = 3): 2218 ± 73 DPM/μg protein | Thymidine incorporation (% control) ([1]; Table 1A, 2.5 × 10^-8 M, 24 hours, 0.025 µM): 97% | mean Thymidine incorp./μg protein ± s.d ([1]; Table 1A, 2.5 × 10^-8 M, 24 hours, n = 3): 2034 ± 46 DPM/μg protein | Thymidine incorporation (% control) ([1]; Table 1A, 2.5 × 10^-9 M, 24 hours, 0.0025 µM): 94% | mean Thymidine incorp./μg protein ± s.d ([1]; Table 1A, 2.5 × 10^-9 M, 24 hours, n = 3): 1977 ± 19 DPM/μg protein | Thymidine incorporation (% control) ([1]; Table 2A, 2.5 × 10^-9 M RA or ROH, with 10^-8 M LADEA and/or 10^-9 M Bifonazole where named, 24 hours): 111% | mean Thymidine incorp. μg protein ± s.d ([1]; Table 2A, 2.5 × 10^-9 M RA or ROH, with 10^-8 M LADEA and/or 10^-9 M Bifonazole where named, 24 hours, n = 3): 4856 ± 217 DPM/μg protein | Thymidine incorporation (% control) ([1]; Table 3A, 2.5 × 10^8 M [sic] ROH, with 10^8 M LADEA and/or 10^9 M Climbazole where named, 1440 min): 102% | mean Thymidine incorp/μg protein ± s.d ([1]; Table 3A, 2.5 × 10^8 M [sic] ROH, with 10^8 M LADEA and/or 10^9 M Climbazole where named, n = 3): 3788 ± 57 DPM/μg protein | Thymidine incorporation (% control) ([1]; Table 4, 2.5 × 10^9 M [sic] RA or ROH, with 10^8 M LAMEA and/or 10^8 M Clotrimazole where named, 24 hours): 113% | mean Thymidine incorp/μg protein ± s.d, normalized to control ([1]; Table 4, 2.5 × 10^9 M [sic] RA or ROH, with 10^8 M LAMEA and/or 10^8 M Clotrimazole where named, 24 hours, n = 3): 1.13 ± 0.09 | effect on transglutaminase level / keratinocyte differentiation (in words) ([2]; Example 1, 2.5×10^-7 M, 2.5×10^-8 M and 2.5×10^-9 M): dose dependent | effect on keratinocyte TG1 level / differentiation (in words) ([2]; Example 2, 2.5×10^-8 M RA or retinol, 10^-8 M LAMEA, 10^-8 M bifonazole, 72 hour): Neither 2.5×10^-8 M retinol nor 10^-8 M LAMEA+10^-8 M bifonazole had an inhibitory effect on the keratinocyte TG1 level | effect on keratinocyte TG1 level / differentiation (in words) ([2]; Example 3, 2.5×10^-7 M RA, 2.5×10^-9 M retinol with 10^-8 M LADEA and/or climbazole, 72 hour): no inhibitory effect on the keratinocyte TG1 level | effect on keratinocyte differentiation (in words) [2, 3]: significantly less effective than retinoic acid at inhibiting keratinocyte differentiation | TGase/DNA (% Control) ([2]; Table 1B, 2.5 × 10^-7 M, 72 hours, 0.25 µM): 47% | Mean TGase/DNA X 10^-4 ± S.D. ([2]; Table 1B, 2.5 × 10^-7 M, 72 hours): 1.14 ± 0.22 X 10^-4 | TGase/DNA (% Control) ([2]; Table 1B, 2.5 × 10^-8 M, 72 hours, 0.025 µM): 77% | Mean TGase/DNA X 10^-4 ± S.D. ([2]; Table 1B, 2.5 × 10^-8 M, 72 hours): 1.89 ± 0.30 X 10^-4 | TGase/DNA (% Control) ([2]; Table 1B, 2.5 × 10^-9 M, 72 hours, 0.0025 µM): > 100% | Mean TGase/DNA X 10^-4 ± S.D. ([2]; Table 1B, 2.5 × 10^-9 M, 72 hours): 2.70 ± 0.59 X 10^-4 | TGase/DNA (% Control) ([2]; Table 2B and Example 2B text, 2.5×10^-8 M RA or retinol, 10^-8 M LAMEA, 10^-8 M bifonazole where named, 72 hour): 84% | mean TGase/DNA × 10^-4 ± s.d ([2]; Table 2B, 2.5 × 10^8 M [sic] RA or ROH, 10^8 M LA-MEA, 10^8 M Bifonazole where named, 72 hour, n = 6): 0.111 ± 0.023 × 10^-4 | TGase/DNA (% Control) ([2]; Table 3B and Example 3B, 2.5×10^-9 M RA or ROH, with 10^-8 M LADEA and/or 10^-8 M climbazole where named, 72 hour): 129% | mean TGase/DNA × 10^4 ± s.d ([2]; Table 3B, 2.5 × 10^9 M [sic] RA or ROH, with 10^8 M LA-DEA and/or 10^8 M Climbazole where named, 72 hour, n = 6): 1.96 ± 0.33 × 10^4
